Source: US5268389A, “Thiocarboxylate ester compounds compositions containing the same” (priority 1990, dated 1993)
Where “and” joins values, the source holds several entries; their conditions need not be identical. Equal values may be shown once.

Tests used:
HIV [1] = assay: microbe, parasite or virus in culture; assay type: cell-based; details: CEM cells, free HIV, read-out: Activity of Anti-HIV Compounds (EC50), CEMV
Method: (§1) The compounds of Examples were tested for anti-AIDS activity by subjecting them to standard National Cancer Institute ("NCI") in vitro screening procedures. In carrying out each test, two blanks were run. In the first blank, HIV and a culture of a standard human cell line were incubated together to measure the infectivity of the virus. The viability of the cells was measured after holding for six or seven days. In an "effective" test, most cells were infected before the holding period was complete.
In the second blank, the cell line culture and the compound being tested (but not virus) were incubated together to measure the toxicity of the drug to the cellline. The viability of the cells was measured as a function of concentration of the compound, after holding for seven days. Typically, the cells survive at low compound concentrations, but at some higher concentration, toxicity of the compound is manifested and the cells die. The concentration of the test compound that results in 50% inhibition of cell growth is defined as the IC50.
(§2) Finally, the protective effects of the test compounds were measured. Each cell culture and test compound were incubated with the virus and the viability of the cells was measured as a function of compound concentration after holding for six or seven days. If the compound is active in protecting the cells against the virus, there is typically low cell viability until an effective concentration of the test compound is reached. At this point, cell viability increases steadily toward 100% unless the toxic effect of the compound (as measured in the second blank) takes effect. The concentration of the test compound that results in 50% "control," i.e., a 50% reduction of the viral cytopathic effect, is defined as the EC 50. The therapeutic index TI50 is calculated as IC50/EC50.
(§3) Values of test compound concentrations required for between 20 and 50% reduction of the viral cytopathic effect can also be determined. Such compounds are classified as moderately active.
(§4) The compounds were tested to determine their reduction of HIV cytopathic effect on the human cell lines CEM and MT2. Tests were done by innoculating these cell lines either with free HIV (V) or with a virus Previously cultured with host cells (C). Thus, in Table III the designation CEMV means CEM line cells innoculated with free virus and MT2C means MT2 cells innoculated with cultured viral infected MT2 cells. In some cases the compound was also tested on a cell line together with a sub-effective amount of the known HIV viricide AZT. This is done to test possible synergistic effects. Such a test on the CEM line is denoted CEMZ.
(§5) 1) T4 lymphocytes (CEM cell line) are exposed to HIV at a virus to cell ratio of approximately 0.05 and plated along with non-infected control cells in 96-well microtiter plates.
(§6) 2) Each candidate agent is dissolved in dimethyl sulfoxide (unless otherwise indicated), then diluted 1:200 in cell culture medium. Further dilutions (five-fold) are prepared before adding to an equal volume of medium containing either infected or noninfected cells.
(§7) 3) Cultures are incubated at 37° C. in a 5% carbon dioxide atmosphere for seven days (if six days the CEMV test is identified as CEM-6).
(§8) 4) The tetrazolium salt, XTT, is added to all wells, and cultures are incubated to allow formazan color development by viable cells.
(§9) 5) Individual wells are analyzed spectrophotometrically to quantity formazan production, and in addition are viewed microscopically for detection of viable cells and confirmation of protective activity.
(§10) 6) Drug-treated virus-infected cells are compared with drug-treated non-infected cells and with other appropriate controls (untreated infected and untreated non-infected cells, drug-containing wells without cells, etc.) on the same plate.
7) A determination of activity is made. […]

HIV [2] = assay: Reduction of HIV cytopathic effect, CEM-6 (CEMV test, six days); assay type: cell-based; details: CEM cells; for EC50: free HIV, read-out: Activity of Anti-HIV Compounds (EC50), CEM-6; for Activity class of Anti-HIV Compounds, CEM-6: inhibition of viral cytopathic effect, 8640 min
Method: as §1, §2, §3, §4, §5, §6, §7, §8, §9, §10

[3] = Human immunodeficiency virus 1, CCRF-CEM
[4] = Human immunodeficiency virus 1, CCRF-CEM, 144 h

Molecule	EC50 (HIV [2])	Activity class of Anti-HIV Compounds, CEM-6 (HIV [2])	other results
CCCCCOC(=O)c1cc(NC(=O)C2=C(C)OCCS2)ccc1Cl [Compound 15, Pentyl 2-chloro-5-[[(5,6-dihydro-2-methyl-1,4-oxathiin-3-yl)carbonyl]amino]benzoate]			EC50 (HIV [1]): 610 nM; EC50 (HIV [1]; [3]): 820 nM
CC(C)OC(=O)c1cc(NC(=O)c2c(Br)c(Br)c(Br)c(Br)c2C(=O)O)c(F)cc1Cl [Compound 20, 2,3,4,5-Tetrabromo-6-[[[4-chloro-2-fluoro-5-[(1-methylethoxy)carbonyl]phenyl]amino]carbonyl]benzoic acid]			EC50 (HIV [1]): 58700 nM and 69400 nM and 54500 nM; EC50 (HIV [1]; [3]): 69500 nM
CC(C)OC(=O)c1cc(NC(=O)c2c(Br)c(Br)c(Br)c(Br)c2C(=O)O)ccc1Cl [Compound 21, 2,3,4,5-Tetrabromo-6-[[[4-chloro-3-[(1-methylethoxy)carbonyl]phenyl]amino]carbonyl]benzoic acid]			EC50 (HIV [1]): 36200 nM; EC50 (HIV [1]; [3]): 58200 nM
CC1=C(C(=O)Nc2ccc(Cl)c(C(=O)OC(C)C)c2)SCCS1 [Compound 27, 1-Methylethyl 2-chloro-5[[(5,6-dihydro-3-methyl-1,4-dithiin-2-yl)carbonyl]amino]benzoate]			EC50 (HIV [1]): 810 nM; EC50 (HIV [1]; [3]): 1380 nM
CC(C)OC(=O)c1cc(NC(=O)C(C)(C)C)c(F)cc1Cl [Compound 30, 1-Methylethyl 2-chloro-5-[(2,2-dimethyl-1-oxopropyl)amino]-4-fluorobenzoate]			EC50 (HIV [1]; [3]): 42700 nM
CC(C)OC(=O)c1cc(NC(=S)OC(C)C)ccc1Cl [Compound 32, 1-Methylethyl 2-chloro-5-[[(1-methylethoxy)thioxomethyl]amino]benzoate]			EC50 (HIV [1]): 59 nM and 30 nM; EC50 (HIV [1]; [3]): 35 nM
CC(C)OC(=O)c1cc(NC(=S)OC2CCCCC2)ccc1Cl [Compound 44]	1340 nM		EC50 (HIV [2]; [4]): 760 nM
CC(C)OC(=O)c1cc(NC(=S)OCC2CC2)ccc1Cl [Compound 46]	53 nM		
CC(C)OC(=O)c1cc(NC(=S)N(C)C)ccc1Cl [Compound 48]		MA (moderate activity (MA), that is, inhibition between approximately 20 and 50%)	
CC(C)NC(=S)Nc1ccc(Cl)c(C(=O)OC(C)C)c1 [Compound 49]		MA (moderate activity (MA), that is, inhibition between approximately 20 and 50%)	
COCCOC(=O)c1cc(NC(=O)C2=C(C)OCCS2)ccc1Cl [Compound 69]			EC50 (HIV [2]; [4]): 340 nM
CCCC1=C(C(=O)Nc2ccc(Cl)c(C(=O)OCC)c2)SCCO1 [Compound 70, Ethyl 2-chloro-5-[[(5,6-dihydro-2-propyl-1,4-oxathiin-3-yl)carbonyl]amino]benzoate]	210 nM and 230 nM		EC50 (HIV [2]; [4]): 170 nM
CCCC1=C(C(=O)Nc2ccc(Cl)c(C(=O)OC)c2)SCCO1 [Compound 71, Methyl 2-chloro-5-[[(5,6-dihydro-2-propyl-1,4-oxathiin-3-yl)-carbonyl]amino]benzoate]	1830 nM and 1620 nM		EC50 (HIV [2]; [4]): 990 nM
CC1=C(C(=O)Nc2ccc(F)c(C(=O)OC(C)C)c2)SCCO1 [Compound 72]	590 nM and 340 nM		EC50 (HIV [2]; [4]): 540 nM
CC1=C(C(=O)Nc2ccc(C)c(C(=O)OC(C)C)c2)SCCO1 [Compound 73]	580 nM		EC50 (HIV [2]; [4]): 410 nM
CCC1=C(C(=O)Nc2ccc(Cl)c(C(=O)OCC(C)C)c2)SCCO1 [Compound 74, 2-Methylpropyl 2-chloro-5-[[(2-ethyl-5,6-dihydro-1,4-oxathiin-3-yl)carbonyl]amino]benzoate]			EC50 (HIV [2]; [4]): 38900 nM
CCCOC(=O)c1ccc(C)c(NC(=O)C2=C(C)OCCS2)c1 [Compound 75, Propyl 3-[[(5,6-dihydro-2-methyl-1,4-oxathiin-3-yl)carbonyl]amino]-4-methylbenzoate]	908 nM		EC50 (HIV [2]; [4]): 1060 nM
CCCCOC(=O)c1cccc(NC(=O)C2=C(C)OCCS2)c1 [Compound 76]		MA (moderate activity (MA), that is, inhibition between approximately 20 and 50%)	

Molecule	EC50 (HIV [2])	Activity class of Anti-HIV Compounds, CEM-6 (HIV [2])	other results
Cc1occc1C(=O)Nc1ccc(Cl)c(C(=O)OC(C)C)c1 [Compound 79, 1-Methylethyl 2-chloro-5-[[(2-methyl-3-furanyl)carbonyl]amino]benzoate]	3300 nM		
Cc1coc(C)c1C(=O)Nc1ccc(Cl)c(C(=O)OC(C)C)c1 [Compound 80, 1-Methylethyl 2-chloro-5-[[(2,4-dimethyl-3-furanyl)carbonyl]amino]benzoate]	2300 nM		
Cc1cc(C(=O)Nc2ccc(Cl)c(C(=O)OC(C)C)c2)c(C)o1 [Compound 81, 1-Methylethyl 2-chloro-5-[[(2,5-dimethyl-3-furanyl)carbonyl]amino]benzoate]			EC50 (HIV [2]; [4]): 420 nM
COCCOC(=O)c1cc(NC(=O)c2ccccc2)ccc1Cl [Compound 84, 2-Methoxyethyl 5-[benzoylamino)-2-chlorobenzoate]		MA (moderate activity (MA), that is, inhibition between approximately 20 and 50%)	
CCOC(=O)c1cc(NC(=O)c2ccccc2OC)ccc1Cl [Compound 86, Ethyl 2-chloro-5-[(2-methoxybenzoyl)amino]benzoate]	1360 nM		EC50 (HIV [2]; [4]): 1740 nM
CCOC(=O)c1cc(NC(=O)c2ccccc2)ccc1Cl [Compound 87, Ethyl 5-(benzoylamino)-2-chlorobenzoate]		MA (moderate activity (MA), that is, inhibition between approximately 20 and 50%)	
CC(C)OC(=O)c1cc(NC(=O)c2ccccc2Cl)ccc1Cl [Compound 90, 1-Methylethyl 2-chloro-5-[(2-chlorobenzoyl)amino]benzoate]		MA (moderate activity (MA), that is, inhibition between approximately 20 and 50%)	
CC(C)=CC(=O)Nc1ccc(Cl)c(C(=O)OC(C)C)c1 [Compound 91, 1-Methylethyl 2-chloro-5-[(3-methyl-1-oxo-2-butenyl)amino]-benzoate]		MA (moderate activity (MA), that is, inhibition between approximately 20 and 50%)	
C#CCOC(=O)Nc1ccc(Cl)c(C(=O)OC(C)C)c1 [Compound 92, 1-Methylethyl 2-chloro-5-[((2-propynyloxy)carbonyl]amino]benzoate]		MA (moderate activity (MA), that is, inhibition between approximately 20 and 50%)	
Cc1nc(C(=O)Nc2ccc(Cl)c(C(=O)OC(C)C)c2)c(-c2ccccc2)o1 [Compound 103]		MA (moderate activity (MA), that is, inhibition between approximately 20 and 50%)	
CC(C)OC(=O)c1cc(NC(=O)c2cc3ccccc3[nH]2)ccc1Cl [Compound 104]		MA (moderate activity (MA), that is, inhibition between approximately 20 and 50%)	
Cc1nc(-c2ccccc2)c(C(=O)Nc2ccc(Cl)c(C(=O)OC(C)C)c2)o1 [Compound 105]		MA (moderate activity (MA), that is, inhibition between approximately 20 and 50%)	
Cc1ccsc1C(=O)Nc1ccc(Cl)c(C(=O)OC(C)C)c1 [Compound 106]	2200 nM		
CC(C)OC(=O)c1cc(NC(=O)C2=CCCCC2)ccc1Cl [Compound 107]		MA (moderate activity (MA), that is, inhibition between approximately 20 and 50%)	
Cc1cc(C)c(C(=O)Nc2ccc(Cl)c(C(=O)OC(C)C)c2)s1 [Compound 108]		MA (moderate activity (MA), that is, inhibition between approximately 20 and 50%)	
CC(C)OC(=O)c1cc(NC(=O)c2ccsc2)ccc1Cl [Compound 109]		MA (moderate activity (MA), that is, inhibition between approximately 20 and 50%)	
Ethyl 5-[(2-aminobenzoyl)amino]-2-chlorobenzoate [Compound 88]	5700 nM and 3100 nM		
